US12036194B1, “Methods of administering solriamfetol to lactating women” (Axsome Malta Ltd., priority 2022, dated 2024)
“And” between values parts separate entries of the source, which are not always exact repeats. Equal entries are not always repeated. Structures can show the parent of a compound that is named as a salt.

Key:
[1] = animals tested; cited from earlier work
[2] = rats; breast milk; cited from earlier work
[3] = Phase 4 single-dose study: safety and tolerability (adverse events, vital signs, 12-lead ECG, C-SSRS); format: in vivo, human; details: for Subjects who discontinued due to AE / Subjects with Mild AE / Subjects with Moderate AE / Subjects with SAE / Subjects with an AE considered related to study drug / Subjects with an AE considered unrelated to study drug / Subjects with at least 1 AE: hydrochloride
Description: Pharmacokinetic analysis of breast milk obtained from both breasts (by pumping) was evaluated prior to dose administration and at intervals up to 72 hours postdose. Blood samples were also collected for plasma solriamfetol quantitation and PK analysis predose and at timepoints up to 72 hours postdose. Solriamfetol breast milk and plasma concentrations were measured using validated bioanalytical methods. Safety was assessed throughout the study by 12-lead ECG, vital sign measurements, the Columbia-Suicide Severity Rating Scale (C-SSRS), and the incidence of adverse events (AE).
Vital signs (blood pressure, pulse rate, temperature, and respiratory rate) were measured with the subject in a seated or supine position and resting for at least 5 minutes prior to taking the measurement. The dominant arm was used for blood pressure and pulse rate measurements. On Day 1, vital signs were collected at predose, and at approximately 2 (blood pressure and pulse) and 4 hours (blood pressure and pulse) postdose.
12-lead ECG was taken with the subject in a supine position and resting for at least 10 minutes prior to taking the measurement. On Day 1, ECGs were collected predose and at approximately 2 hours postdose.
Adverse events were monitored throughout the study by safety assessments, observations, and subject reporting, including the Safety FU telephone call 5-7 days (i.e., Days 9-11) after check-out from the study facility on Day 4, or ET.
The 12-lead ECGs were collected at Screening, Day −1 until Day 4. Single 12-lead ECG was obtained using an ECG machine that automatically calculated the heart rate and measured PR, QRS, QT, and corrected QT interval (QTc) intervals. Any abnormal safety assessments including ECG readings considered clinically significant in the medical and scientific judgment of the investigator were reported as an AE. The investigator had to review the ECG and document it in the source documents. Clinically significant abnormal ECG results reported during Screening were recorded as medical history and those reported after study drug were recorded as AEs.
Safety analyses were based on the Safety Population. The secondary endpoints for evaluating subject safety and tolerance were the incidence of reported AEs and the laboratory test results for all subjects.
Adverse events: Adverse events recorded in the electronic case report forms (eCRFs) were coded to SOC and PT using the Medical Dictionary for Regulatory Activities (MedDRA). Treatment-emergent adverse events (TEAEs) are defined as any event with onset date on or after the first dose of study drug or any ongoing event that worsened in severity after the date of the first dose of study drug or any event that was present at baseline but was subsequently considered drug-related by the investigator through the end of the study. The incidence of TEAEs were presented by severity, relationship to study drug, start and end date, seriousness, and outcome. The investigator assessed the severity and relatedness of each AE to study drug. Columbia-Suicide Severity Rating Scale (C-SSRS) data were summarized at scheduled visits and were listed. Other safety analyses were performed as appropriate.
12 Lead ECG: The number and percentage of subjects who had the following postbaseline clinically notable ECG interval abnormality was summarized: Ventricular rate >100 beats/min or ≤60 beats/min; PR interval ≥200 msec or ≤120 msec; QRS duration ≥100 msec or ≤80 msec; QT interval ≥440 msec or ≤350 msec; QTc Bazett and QTc Fredericia ≥470 msec or ≤330 msec; RR interval ≥1200 msec or ≤600 msec; and QTc Bazette and QTc Fredericia increase from study Baseline Value >30 msec. […]

[4] = Sunosi label, cited from earlier work
[5] = cited from earlier work
[6] = Solriamfetol 150 mg single dose, N = 6
[7] = Solriamfetol 150 mg single dose, N = 6, listed as solriamfetol
[8] = any post-baseline visit/timepoint, 150 mg, N = 6
[9] = healthy male and female patients not postpartum

## NC(=O)OC[C@H](N)Cc1ccccc1 [Solriamfetol, (R)-2-amino-3-phenylpropyl carbamate (APC) hydrochloride]
[1]
  absorption and oral bioavailability: rapid absorption and high oral bioavailability
  exposure (maximum serum concentration and AUC) versus dose: dose-proportional exposure
[2]
  solriamfetol milk concentrations versus plasma concentrations: higher than
[3]; 150 mg single dose, N = 6
  abnormal clinically significant ECG findings: No abnormal clinically significant ECG findings
  number of TEAEs of mild intensity (dizziness, headache, agitation; related to study drug): 3 TEAEs
  number of TEAEs of moderate intensity (headache; unrelated to study drug): 1 TEAE
  outcome of TEAEs: resolved
  subjects reporting suicidal ideation or event under Columbia-Classification Algorithm for Suicide Assessment: None
  subjects with abnormal, clinically significant laboratory findings: None
  total number of TEAEs reported: 4 TEAEs
[3]; [6]
  Subjects who discontinued due to AE considered related to study drug: 0 n (%)
  Subjects who discontinued due to AE considered unrelated to study drug: 0 n (%)
  Subjects with Fatal AE: 0 n (%)
  Subjects with Life-threatening AE: 0 n (%)
  Subjects with SAE considered related to study drug: 0 n (%)
  Subjects with SAE considered unrelated to study drug: 0 n (%)
  Subjects with Severe AE: 0 n (%)
  TEAE, PT Agitation: 1 (16.7) n (%)
  TEAE, PT Dizziness: 1 (16.7) n (%)
  TEAE, PT Headache: 2 (33.3) n (%)
  TEAE, SOC Nervous system disorders: 2 (33.3) n (%)
  TEAE, SOC Psychiatric disorders: 1 (16.7) n (%)
  Subjects who discontinued due to AE: 0 n (%)
  Subjects with Mild AE: 2 (33.3) n (%)
  Subjects with Moderate AE: 1 (16.7) n (%)
  Subjects with SAE: 0 n (%)
  Subjects with an AE considered related to study drug: 2 (33.3) n (%)
  Subjects with an AE considered unrelated to study drug: 1 (16.7) n (%)
  Subjects with at least 1 AE: 3 (50.0) n (%)
[3]; [7]
  Subjects who discontinued due to AE: None
  Subjects with Mild AE: 2 (33.3%) n (%)
  Subjects with Moderate AE: 1 (16.7%) n (%)
  Subjects with SAE: No SAEs
  Subjects with an AE considered related to study drug: 2 (33.3%) n (%)
  Subjects with an AE considered unrelated to study drug: 1 (16.7%) n (%)
  Subjects with at least 1 AE: 3 (50%) n (%) and 3 n (%)
[3]; [8]
  Clinically notable Body temperature: Change in body temperature > 1.8% from the subjects baseline temperature recordings: 1 (16.7) n (%)
  Clinically notable Diastolic blood pressure: Average diastolic blood pressure ≥ 95 mmHg or ≤ 60 mmHg: 2 (33.3) n (%)
  Clinically notable ECG mean heart rate: Ventricular rate ≥ 100 beats/min or ≤ 60 beats/min: 2 (33.3) n (%)
  Clinically notable PR interval, single beat: PR interval ≥ 200 msec or ≤ 120 msec: 2 (33.3) n (%)
  Clinically notable Pulse rate: Pulse change by > 20% from the study baseline value/recordings: 2 (33.3) n (%)
  Clinically notable QRS duration, single beat: QRS duration ≥ 100 msec or ≤ 80 msec: 4 (66.7) n (%)
  Clinically notable QT interval, single beat: QT interval ≥ 440 msec or ≤ 350 msec: 1 (16.7) n (%)
  Clinically notable Systolic blood pressure: Blood pressure change by > 20% from the study baseline value/recordings: 1 (16.7) n (%)
[3]; baseline to Day 1 2 hours and 4 hours, Day 2, Day 3, Day 4
  changes in vital sign parameters from baseline: no major changes
[3]; baseline to Day 1 predose and 2 hours, Day 2, Day 3, Day 4
  changes in ECG parameters from baseline: no major changes
[3]; single oral dose 150 mg, 6 healthy postpartum women
  overall safety and tolerability: safe and well tolerated
[4]; [9]
  apparent mean elimination plasma half-life: 7.1 h
  oral bioavailability: approximately 95%
[4]; post-dose under fasted conditions, not postpartum
  median Tmax of peak plasma concentration: 2 h
[5]; fed versus fasted
  PK in fed versus fasted subjects: satisfied the criteria for bioequivalence
[5]; in vivo
  systemic elimination half-life: 5.0 to 7.6 h
[5]; once daily dosing
  estimated accumulation ratio: 1.06
